Where “and” joins values, the source holds several entries; their conditions need not be identical. Equal entries are not always repeated. ± gives the expanded uncertainty stated by the source.
Settings: for mass density: Buoyancy - hydrostatic balance with magnetic suspension - two sinkers; for vapor or sublimation pressure: Closed cell (Static) method; for speed of sound: Spherical resonator

O=C(C(F)(F)C(F)(F)F)C(F)(C(F)(F)F)C(F)(F)F [dodecafluoro-2-methylpentan-3-one]
Settings	mass density [kg/m3]	speed of sound [m/s]
400.01 K, 16056 kPa, Liquid	1413.68 ± 0.19	–
400.01 K, 24343 kPa, Liquid	1465.04 ± 0.2	–
400.05 K, 54.88 kPa, Gas	–	102.64 ± 0.2
400.05 K, 54.92 kPa, Gas	–	102.64 ± 0.2
400.05 K, 154.66 kPa, Gas	–	99.83 ± 0.2
400.05 K, 252.99 kPa, Gas	–	96.94 ± 0.2
400.05 K, 354.19 kPa, Gas	–	93.75 ± 0.19
400.05 K, 451.42 kPa, Gas	–	90.4 ± 0.19
400.05 K, 554.73 kPa, Gas	–	86.45 ± 0.18
400.05 K, 667.8 kPa, Gas	–	81.52 ± 0.17
402 K, 14323 kPa, Liquid	1395.32 ± 0.18	–
410.01 K, 16854 kPa, Liquid	1394.24 ± 0.19	–
420 K, 19987 kPa, Liquid	1392.85 ± 0.19	–
420.02 K, 6075.7 kPa, Liquid	1241.69 ± 0.17	–
425.04 K, 60.31 kPa, Gas	–	105.94 ± 0.21
425.04 K, 144.61 kPa, Gas	–	104 ± 0.21
425.04 K, 258 kPa, Gas	–	101.36 ± 0.2
425.04 K, 399.11 kPa, Gas	–	97.86 ± 0.2
425.04 K, 546.05 kPa, Gas	–	93.91 ± 0.19
425.04 K, 696.35 kPa, Gas	–	89.45 ± 0.19
425.04 K, 845.73 kPa, Gas	–	84.47 ± 0.18
425.04 K, 951.86 kPa, Gas	–	80.49 ± 0.17
425.04 K, 1061.7 kPa, Gas	–	75.84 ± 0.17
429.99 K, 8117.7 kPa, Liquid	1240.57 ± 0.17	–
430.02 K, 23113 kPa, Liquid	1391.48 ± 0.19	–
440 K, 10172 kPa, Liquid	1239.42 ± 0.17	–
440.01 K, 26214 kPa, Liquid	1390.14 ± 0.2	–
449.97 K, 1492 kPa, Gas	–	74.05 ± 0.17
449.98 K, 99.8 kPa, Gas	–	108.43 ± 0.21
449.98 K, 296.98 kPa, Gas	–	104.72 ± 0.21
449.98 K, 499.37 kPa, Gas	–	100.64 ± 0.2
449.98 K, 701.04 kPa, Gas	–	96.26 ± 0.2
449.98 K, 901.63 kPa, Gas	–	91.5 ± 0.19
449.98 K, 1104.8 kPa, Gas	–	86.19 ± 0.18
449.98 K, 1292.1 kPa, Gas	–	80.71 ± 0.17
449.98 K, 1680.8 kPa, Gas	–	66.68 ± 0.15
450 K, 12226 kPa, Gas	1238.27 ± 0.18	–
450.01 K, 394.1 kPa, Gas	35.895 ± 0.17	–
450.01 K, 913.4 kPa, Gas	93.929 ± 0.2	–
450.01 K, 1478.4 kPa, Gas	185.135 ± 0.4	–
450.01 K, 2042.6 kPa, Gas	417.845 ± 0.77	–
450.01 K, 2500.6 kPa, Gas	856.702 ± 0.45	–
450.01 K, 2998.2 kPa, Gas	943.857 ± 0.18	–
450.01 K, 3997.1 kPa, Gas	1026.46 ± 0.17	–
450.01 K, 4993.9 kPa, Gas	1075.63 ± 0.18	–
450.01 K, 5983.6 kPa, Gas	1111.42 ± 0.17	–
450.01 K, 8215.2 kPa, Gas	1169.39 ± 0.17	–
450.01 K, 12010 kPa, Gas	1235.17 ± 0.17	–
450.01 K, 15954 kPa, Gas	1283.62 ± 0.18	–
450.01 K, 19948 kPa, Gas	1321.88 ± 0.19	–
450.01 K, 29286 kPa, Gas	1388.75 ± 11	–
460 K, 14282 kPa, Gas	1237.17 ± 0.18	–
469.99 K, 2186.2 kPa, Gas	306.462 ± 0.37	–
469.99 K, 2797.9 kPa, Gas	560.84 ± 0.42	–
469.99 K, 3424.1 kPa, Gas	779.472 ± 0.23	–
469.99 K, 6087.4 kPa, Gas	1018.11 ± 0.15	–
470 K, 680 kPa, Gas	61.543 ± 0.17	–
470 K, 1356.4 kPa, Gas	142.264 ± 0.23	–
470 K, 4374.3 kPa, Gas	910.538 ± 0.15	–
470 K, 7969.1 kPa, Gas	1085.6 ± 0.16	–
470 K, 9768.9 kPa, Gas	1131.11 ± 0.16	–
470 K, 11977 kPa, Gas	1173.86 ± 0.17	–
470 K, 14031 kPa, Gas	1205.91 ± 0.18	–
470 K, 16332 kPa, Gas	1236.02 ± 0.18	–
475.01 K, 147.79 kPa, Gas	–	110.98 ± 0.22
475.01 K, 349.5 kPa, Gas	–	107.83 ± 0.21
475.01 K, 501.76 kPa, Gas	–	105.38 ± 0.21
475.01 K, 501.77 kPa, Gas	–	105.38 ± 0.21
475.01 K, 501.78 kPa, Gas	–	105.38 ± 0.21
475.01 K, 501.8 kPa, Gas	–	105.38 ± 0.21
475.01 K, 697.46 kPa, Gas	–	102.08 ± 0.2
475.01 K, 898.52 kPa, Gas	–	98.51 ± 0.2
475.01 K, 1150.9 kPa, Gas	–	93.77 ± 0.19
475.01 K, 1296.2 kPa, Gas	–	90.92 ± 0.19
475.01 K, 1496.6 kPa, Gas	–	86.78 ± 0.18
475.01 K, 1685 kPa, Gas	–	82.69 ± 0.18
500.01 K, 103.24 kPa, Gas	–	114.77 ± 0.22
500.01 K, 301.45 kPa, Gas	–	112.25 ± 0.22
500.01 K, 502.44 kPa, Gas	–	109.63 ± 0.21
500.01 K, 502.55 kPa, Gas	–	109.63 ± 0.21
500.01 K, 502.62 kPa, Gas	–	109.63 ± 0.21
500.01 K, 502.7 kPa, Gas	–	109.63 ± 0.21
500.01 K, 502.81 kPa, Gas	–	109.64 ± 0.21
500.01 K, 503 kPa, Gas	–	109.64 ± 0.21
500.01 K, 703.51 kPa, Gas	–	106.95 ± 0.21
500.01 K, 893.84 kPa, Gas	–	104.33 ± 0.21
500.01 K, 1100.4 kPa, Gas	–	101.42 ± 0.2
500.01 K, 1100.8 kPa, Gas	–	101.42 ± 0.2
500.01 K, 1308.1 kPa, Gas	–	98.44 ± 0.2
500.01 K, 1503.6 kPa, Gas	–	95.59 ± 0.19
500.01 K, 1746.5 kPa, Gas	–	92 ± 0.19
500.02 K, 1746.7 kPa, Gas	–	92 ± 0.19
500.02 K, 1746.9 kPa, Gas	–	91.99 ± 0.19

Liquid
Settings	vapor or sublimation pressure
400.01 K	826 ± 2 kPa
410.02 K	1016 ± 2.2 kPa
410.03 K	1014.3 ± 2.2 kPa
420.02 K	1238.2 ± 2.5 kPa and 1238.3 ± 2.5 kPa
